Source: PubChem BioAssay AID1963860 (Molecular Pharmacology Branch, DTP, NCI, 2024)

System: CN0375-F725-PDC KRAS spheroid viability
Assay: Anticancer human tumor CN0375-F725-PDC patient-derived colon carcinoma cell line growth inhibition [KRAS2]
Conditions: spheroids with HUVEC and MSC; for IC50: curve of first compound; for viability, T/C: stronger effect = lower value
Excerpt: Multicellular complex tumor spheroid response to RAS pathway inhibitors in combination with a targeted agents in patient-derived cell lines with oncogenic KRAS variants from multiple cancer types
A high-throughput screen of multi-cell type tumor spheroids was designed to identify active combinations of targeted small molecules and KRAS pathway inhibitors. Complex spheroids include a stromal component modeled by human endothelial cells (HUVEC) and fibroblasts modeled by human mesenchymal stem cells (MSCs). The concentration ranges selected for each drug and investigational agent were based upon clinically achievable concentrations if the clinical Cmax of the agent was known.
Compounds. The drugs and investigational agents: BI-3406 (NSC825286), BAY-293 (NSC824723), batoprotafib (TNO155; NSC825523), sotorasib (AMG 510; NSC818433), MRTX1257 (NSC819558), elimusertib (BAY 1895344; NSC800525), molibresib (GSK525762; NSC774829), temuterkib (LY3214996; NSC803410), venetoclax (NSC766270), alisertib (NSC759677), olaparib (NSC753686), talazoparib (NSC767125), erdafitinib (NSC781556), ipatasertib (NSC767898), cabozantinib (NSC761068), nintedanib (NSC756659), abemaciclib (NSC768073), docetaxel (NSC628503), trametinib (NSC758246), and sapanisertib (NSC764658) were obtained from the National Cancer Institute (NCI) Developmental Therapeutics Program Chemical Repository. The FDA-approved anticancer drug set is available from the Developmental Therapeutics Program. […] The stock solutions were prepared in dimethyl sulfoxide (DMSO, Sigma-Aldrich, St. Louis, MO, cat. D2650) at 800-fold the tested concentration and stored at -70 degrees C prior to their use. All drugs and investigational agents were tested over a range starting from a high concentration at or near the clinical Cmax and decreasing in half-log increments. If the clinical Cmax for an agent had not been determined, the highest concentration tested was 10 microM.
Cell Culture. All cells were maintained in an incubator at 37 degrees C and 5% CO2 with 95% humidity. The PDC lines were cultured according to standard operating procedures established by the NCI PDMR (https://pdmr.cancer.gov/sops/default.htm). Briefly, all PDCs were thawed and cultured in Matrigel-coated flasks prepared with a working solution of 1X Ham's F-12 nutrient mix, without supplementation (Invitrogen, Waltham, MA, cat. 11765054), 100 U/mL penicillin-streptomycin (Invitrogen, cat. 15140122), and 2.5% Matrigel (Corning Inc., Corning, NY, cat. 354248) for the first three passages. All PDCs were cultured in complete DMEM/F-12 media containing advanced DMEM/F-12 (Invitrogen, cat. 12634028), 4.9% defined fetal bovine serum, heat inactivated (HyClone Laboratories Inc., Logan, UT, cat. SH30070.03HI), 389 ng/mL hydrocortisone (Sigma-Aldrich, cat. H4001), 9.7 ng/mL human EGF recombinant protein (Invitrogen, cat. PHG0313), 23.4 microg/mL adenine (Sigma-Aldrich, cat. A2786), 97.3 U/mL penicillin-streptomycin (Invitrogen, cat. 15140122), 1.9 mM L-glutamine (Invitrogen, cat. 25030081), and 9.7 microM Y-27632 dihydrochloride (Tocris Bioscience, Bristol, United Kingdom, cat. 1254). The PDCs were cultured in complete DMEM/F12 media without 9.7 microM Y-27632 dihydrochloride for at least two passages prior to the screen. The established cell line HOP-62 was cultured in RPMI 1640 medium, HEPES (Invitrogen, cat. 22400105) with 10% defined fetal bovine serum (HyClone Laboratories Inc., cat. SH30070.03) and 2 mM L-glutamine (Invitrogen, cat. 25030081). The pooled donor HUVEC were cultured in endothelial cell growth medium 2 (PromoCell, Heidelberg, Germany, cat. C-22011) and the hMSC were cultured in mesenchymal stem cell growth medium 2 (PromoCell, cat. C-28009). For all experiments, HUVEC and hMSC were used at passages </=5, while the malignant cell lines were used at passages </=15. […]

[1] = second compound 0.1 µM, first compound 0.0316 µM
[2] = second compound 0.1 µM, first compound 0.1 µM
[3] = second compound 0.1 µM, first compound 0.316 µM
[4] = second compound 0.1 µM, first compound 1 µM
[5] = second compound 0.1 µM, first compound 3.16 µM
[6] = second compound 0.1 µM, first compound 10 µM
[7] = second compound 0.316 µM, first compound 0.0316 µM
[8] = second compound 0.316 µM, first compound 0.1 µM
[9] = second compound 0.316 µM, first compound 0.316 µM
[10] = second compound 0.316 µM, first compound 1 µM
[11] = second compound 0.316 µM, first compound 3.16 µM
[12] = second compound 0.316 µM, first compound 10 µM
[13] = second compound 1 µM, first compound 0.0316 µM
[14] = second compound 1 µM, first compound 0.1 µM
[15] = second compound 1 µM, first compound 0.316 µM
[16] = second compound 1 µM, first compound 1 µM
[17] = second compound 1 µM, first compound 3.16 µM
[18] = second compound 1 µM, first compound 10 µM
[19] = second compound 3.16 µM, first compound 0.0316 µM
[20] = second compound 3.16 µM, first compound 0.1 µM
[21] = second compound 3.16 µM, first compound 0.316 µM
[22] = second compound 3.16 µM, first compound 1 µM
[23] = second compound 3.16 µM, first compound 3.16 µM
[24] = second compound 3.16 µM, first compound 10 µM
[25] = second compound 10 µM, first compound 0.0316 µM
[26] = second compound 10 µM, first compound 0.1 µM
[27] = second compound 10 µM, first compound 0.316 µM
[28] = second compound 10 µM, first compound 1 µM
[29] = second compound 10 µM, first compound 3.16 µM
[30] = second compound 10 µM, first compound 10 µM
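Note: spheroids exposed to agents for 7 days.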

| Compound | IC50 (second compound 0.1 µM) [µM] | IC50 (second compound 0.316 µM) [µM] | IC50 (second compound 1 µM) [µM] | IC50 (second compound 3.16 µM) [µM] | IC50 (second compound 10 µM) [µM] | viability, T/C [1] [%] | viability, T/C [2] [%] | viability, T/C [3] [%] | viability, T/C [4] [%] | viability, T/C [5] [%] | viability, T/C [6] [%] | viability, T/C [7] [%] | viability, T/C [8] [%] | viability, T/C [9] [%] | viability, T/C [10] [%] | viability, T/C [11] [%] | viability, T/C [12] [%] | viability, T/C [13] [%] | viability, T/C [14] [%] | viability, T/C [15] [%] | other results |
| --- | --- | --- | --- | --- | --- | --- | --- | --- | --- | --- | --- | --- | --- | --- | --- | --- | --- | --- | --- | --- | --- |
| COC(=O)c1ccc2c(C(=Nc3ccc(N(C)C(=O)CN4CCN(C)CC4)cc3)c3ccccc3)c(O)[nH]c2c1 + C=CC(=O)N1CCN(c2nc(=O)n(-c3c(C)ccnc3C(C)C)c3nc(-c4c(O)cccc4F)c(F)cc23)C(C)C1 | 3.69 | 2.35 | 1.78 | 1.86 | 1.54 | 98.2 | 100 | 95.3 | 94.8 | 57.7 | 0.25 | 104 | 103 | 93.8 | 96.1 | 34.2 | 0.2 | 106 | 108 | 96.3 | viability, T/C [16]: 88.1%; viability, T/C [17]: 12.5%; viability, T/C [18]: 0.2%; viability, T/C [19]: 104%; viability, T/C [20]: 106%; viability, T/C [21]: 102%; viability, T/C [22]: 90%; viability, T/C [23]: 15.7%; viability, T/C [24]: 0.22%; viability, T/C [25]: 97.9%; viability, T/C [26]: 98.2%; viability, T/C [27]: 87.1%; viability, T/C [28]: 73%; viability, T/C [29]: 12.3%; viability, T/C [30]: 0.26% |
| O=C(c1cc(Cc2n[nH]c(=O)c3ccccc23)ccc1F)N1CCN(C(=O)C2CC2)CC1 + C=CC(=O)N1CCN(c2nc(=O)n(-c3c(C)ccnc3C(C)C)c3nc(-c4c(O)cccc4F)c(F)cc23)C(C)C1 | > 10 | > 10 | > 10 | > 10 | > 10 | 107 | 107 | 99.6 | 100 | 99.8 | 93.9 | 109 | 102 | 102 | 103 | 101 | 92.3 | 109 | 113 | 106 | viability, T/C [16]: 99.2%; viability, T/C [17]: 102%; viability, T/C [18]: 91.1%; viability, T/C [19]: 105%; viability, T/C [20]: 111%; viability, T/C [21]: 106%; viability, T/C [22]: 99.7%; viability, T/C [23]: 99.6%; viability, T/C [24]: 97.2%; viability, T/C [25]: 97.9%; viability, T/C [26]: 100%; viability, T/C [27]: 94.2%; viability, T/C [28]: 94.5%; viability, T/C [29]: 96.4%; viability, T/C [30]: 85.2% |
